Test results from patent US4810648A, “Haloarylnitrile degrading gene, its use, and cells containing the gene” (Rhone Poulenc Agrochimie, priority 1987, dated 1989).

Tests used:
[1] = target: T1, Klebsiella ozaenae bromoxynil-specific nitrilase, N-terminal modified variant nit-23 (pBrx23) (Klebsiella pneumoniae, UniProt P10045); test: Kinetics of purified N-terminal modified nitrilase; assay type: biochemical, Klebsiella pneumoniae sub-species ozaenae; conditions: purified nit-23
T1 construct: natural N-terminus truncated (Bal31, about 51 nt removed) and replaced by 17 pUC19-encoded residues; purified enzyme
Protocol: Plasmid pBrx9 was digested with BamH1, followed by resection with Bal31 for about 5 min to remove about 51 nt. The enzyme was inactivated, the resected linear DNA sequence ligated with BamH1 linkers, digested with BamH1 and recircularized under ligating conditions. […] This fragment was inserted into pCGN 566 which had been completely digested with BamH1 and SmaI to produce plasmid pBrx23, of 3.7Kb. Plasmid pCGN 566 is a derivative of pUC13 with polylinkers from pUC18 and pUC19 and the chloramphenicol resistance gene. The fragment from pBrx15 is inserted to be in reading frame with an upstream initiation codon and where 17 amino acids encoded by the pUC19 sequence replace amino acids of the naturally occurring nitrilase.
The following provides the sequence of the N-terminal modified nitrilase (nit-23). [drawing 3] Purification of the Wild-Type and Altered Nitrilase
Nitrilase was prepared from stationary phase MM 294 E. coli cells containing the pBrx9, pBrx11 or pBrx28 plasmids. Cultures were grown under ampicillin selection until the whole cell nitrilase assay yielded an OD640 of approximately 2.0. Cultures were centrifuged at 8,000 xg for 15 min at 4° C. The cells were washed in 0.1M potassium phosphate buffer pH 7.4, repelleted, dried, and frozen at -20° C. The pellet was thawed at 4° C. and resuspended in 40 ml 50 mM potassium phosphate buffer with 1 mM dithiothreitol, 0.1 mM EDTA (KDE). […]

tobacco leaf sections = test: Tobacco leaf sections in bromoxynil containing media under photoautotrophic conditions; assay type: cell-based, Nicotiana tabacum cv. "Xanthi"
Protocol: The plasmids were transformed into A, tumefaciens strain LBA4404, followed by co-cultivation with tobacco (Nicotiana tabacum cv. "Xanthi") cotyledonary explants. Kanamycin-resistant shoots were regenerated into tobacoo plants in accordance with conventional techniques.
Approximately 5 mm leaf section from surface-sterilized (10% hypochloriate; water-washed) leaves were suspended in bromoxynil containing media under photoautotrophic conditions. The media employed was MS salts containing 0.93 mg/l naphthylacetic acid and 0.11 mg/l benzylaminopurine, with varying amounts of bromoxynil. The concentration of bromoxynil varied from 10^-3 to 10^-6 M at 0.1 dilutions. The photoautotrophic conditions were 5% CO2, 10% O2, 85% N2. Control tobacco leaf sections which had not been transformed were bleached (inhibited) at 10^-6 M bromoxynil. By contrast, transformed leaf sections expressing the bromoxynil-specific nitrilase from plasmids pBrx39 and pBrx40 were resistant to 10^-5 M and 10^-4 M bromoxynil, respectively.

tomato leaf sections = test: Tomato leaf sections in bromoxynil-containing medium under photoautotrophic conditions; assay type: cell-based, Lycopersicon esculentum cv. UC828
Protocol: Co-cultivation of tomato (Lycopersicon esculentum cv. UC828) cotyledonary explants was carried out as described previously with tobacco and kanamycin shoots regenerated. […] Approximately 5 mm leaf sections from surface-sterilized(10% hypochlorite; water washed) leaves were suspended in bromoxynil-containing medium at varying concentrations under photoautotrophic conditions. The media was MS salts containing 2 mg/l […], 1 mg/l isopentyladenine and 100 mg/l myoinositol and bromoxynil at 10^-5 or 10^-6 M. The same photoautotrophic conditions were employed as described for tobacco. […] Transgenic tomato plants (10-20 leaf stage) were sprayed with a commercial formulation of bromoxynil (BUCTRIL) and found to be resistant at 0.5 lbs/acre.

N#Cc1cc(Br)c(O)c(Br)c1 = test: Kinetics of purified wild-type bromoxynil-specific nitrilase; assay type: biochemical, Klebsiella pneumoniae sub-species ozaenae; conditions: other: purified nit-wt, substrate not given, 30.0 °C
Protocol: All four colonies were grown in 200 mls L-broth containing 0.05% bromoxynil. Cells were disrupted with a French press, the high speed supernatants dialyzed against buffer containing 0.05M KPO, pH7.5; 2.5 mM dithiothreitol (DTT) and the individual crude extracts assayed for bromoxynil specific nitrilase activity. […] Cells (200 ml) were grown at 30° C. to mid log phase in M9 medium (Miller (1972) Experiments in Molecular Genetics, Cold Spring Harbor Laboratory) containing 0.1% glucose and 0.04% bromoxynil. Crude extracts were prepared by cell disruption, ultracentrifugation and dialysis of the supernatant in buffer containing 0.05M KPO4 pH 7.5 and 2.5 mM DTT. Substrate concentarion was 3 mM bromoxynil in all assays. Release of NH3 was monitored according to Harper Biochem. J. (1977) 167:685-692. The ability of K. ozaenae variant to grow in L-broth containing bromoxynil may result in acquired impermeability of the organism to the compound. However, the organism cannot grow in defined media utilizing bromoxynil as sole nitrogen source.
Nitrilase was prepared from stationary phase MM 294 E. coli cells containing the pBrx9, pBrx11 or pBrx28 plasmids. Cultures were grown under ampicillin selection until the whole cell nitrilase assay yielded an OD640 of approximately 2.0. Cultures were centrifuged at 8,000 xg for 15 min at 4° C. […]

Molecule | Km [1] | Vmax [1] | minimal effective concentration (tobacco leaf sections; Nicotiana tabacum, control tobacco leaf sections, not transformed, read-out: concentration at which leaf sections were bleached (inhibited)) | concentration to which leaf sections were resistant (tobacco leaf sections; transformed tobacco leaf sections expressing nitrilase from pBrx39) | concentration to which leaf sections were resistant (tobacco leaf sections; transformed tobacco leaf sections expressing nitrilase from pBrx40) | minimal effective concentration (tomato leaf sections; Solanum lycopersicum, control tomato leaf sections, not transformed, read-out: concentration at which leaf sections were bleached) | concentration to which leaf sections were resistant (tomato leaf sections; transformed tomato expressing nitrilase gene from pBrx29) | Km (N#Cc1cc(Br)c(O)c(Br)c1)
N#Cc1cc(Br)c(O)c(Br)c1 [bromoxynil, 3,5-dibromo-4-hydroxybenzonitrile] | 110 µM | 9 µmol/min/mg | 1 µM | 10^-5 M | 10^-4 M | 1 µM | 10^-5 M | –
Klebsiella ozaenae bromoxynil-specific nitrilase, wild type (nit-wt, from pBrx9) (Klebsiella pneumoniae subsp. ozaenae) | – | – | – | – | – | – | – | 0.31 mM
